Results reported in US4859688A, “Method for the treatment and prevention of arteriosclerosis with nitrophenyl substituted dihydropyridines” (priority 1984, dated 1989).

Legend:
thoracic aorta = test: Inhibition of vitamin-D3-induced rise in Ca content of the thoracic aorta (Test 4); conditions: for Ca content of the thoracic aorta (means± standard error): 10μg/kg 1-α hydroxyvitamin D3 orally once a day for 2 weeks; for ED50: Rattus norvegicus, po, 336 h, read-out: ED50, inhibition of vitamin-D3-induced rise in Ca content of the thoracic aorta
[1] = system: rat aortic smooth muscle cells (SMC); test: Inhibition of migration of smooth muscle cell (SMC), modified Boyden chamber (Test 3); format: cell-based, rat (male Wistar); conditions: 5% zymosan-activated air pouch exudates as attractant, 8 hours, 37° C.
Experimental: Inhibition of migration of smooth muscle cell (SMC)
Preparation of inflammatory exudates from zymosan-activated air pouch in rats:
Inflammatory exudates were obtained according to the method of Konno and Tsurufuji [Br. J. Pharmacol., 80 (1983) 269]. Seven-week-old male Wistar rats were injected subcutaneously with 12 ml of air on the back to make a pouch. Twenty-four hours later 6 ml of 1.6% (W/V) zymosan suspension in 0.5% (W/V) methyl cellulose solution in saline was injected into the pouch to induce inflammation. After 3 days the inflammatory exudates were collected with pipets and centrifuged for 15 minutes at 2,000 G. The supernatant was stored at -80° C. until used.
Culture of rat aortic smooth muscle cells (SMC):
Rat aortic SMC were isolated and cultured by the method of Ross [J. Cell Biol. 50 (1971) 172]. […]
Migration of SMC was examined in modified Boyden chambers using a filter membrane with pores of 8 μm diameter [Atherosclerosis, 43 (1982) 143]. […] SMC migration was quantitated microscopically by counting the number of cells that migrated into the filter to a depth of 30μm. Ten high-power fields (HPF, x 400) were examined for each filter and cell migration was expressed as cells per 10 HPF.

rabbit carotid artery [2] = test: Induction of intimal thickening of rabbit carotid artery by polyethylene cuff treatment (Test 2); format: in vivo, male Japanese white rabbits; conditions: intramuscular once a day, 3 weeks, index scale 0-3
Experimental: Induction of intimal thickening of rabbit carotid artery by polyethylene cuff treatment Eight (8) male Japanese white rabbits weighing about 2 kg were used for each test group. The rabbits were anesthetized with 12.5 mg/kg petobarbital and the left carotid artery was isolated with care not to injure the surrounding tissues. A polyethylene cuff (1.5 cm long PE280, inner diameter 2.15 mm, outer diameter 3.25 mm, made by Becton Dickinson & Co.) was placed around the artery according to the technique reported by Rosnowski et al. (CR. Acad, Sci. Paris, 271 (1970) 1467). The rabbits were maintained for 3 weeks on normal diet and water. Test Compounds and vehicles were given intramuscularly once a day starting from the day of cuff-placement. At the end of the 3rd week, the rabbits were heparinized (500 U, i.v.), and the artery was removed, washed free of blood with saline, fixed by immersion in 10% formalin and divided into 8 cross segments about 2 mm long. The segments were embedded in paraffin and cut into transverse sections. These sections were stained with orcein. About 70 transverse sections were prepared from each artery and used for the quantitation of the Arteriosclerotic Index. Quantitation of Arteriosclerotic Index The arterial sections were observed by light microscopy and the Arteriosclerotic Index was scored as follows. 0: No thickening. 1: slight hyperplasia in the subendothelial space with intima-media ratio of about 1/10. 2: several layers of cells in the subendothelial space with intima-media ratio of about 1/5, or parts of the subendothelial space with more hyperplasia. 3: sever hyperplasia throughout the subendothelial space with intima-media ratio of more than 1/3.

rabbit carotid artery [3] = test: Effect on arteriosclerotic change induced by cuff in rabbit carotid artery (Test 1); format: in vivo; conditions: intramuscular, 5 days each week, 3 weeks, index scale 0-3
Description: Effect on arteriosclerotic change induced by cuff in rabbit carotid artery
The arteriosclerosis which is characterized by intimal thickening was made in rabbits (about 2 kg weight) by the following method.
Under pentobarbital anesthesia, the left carotid artery was isolated from the surrounding tissue, put into a cuff (1.5 cm long PE-280) through a longitudinal slit and was returned to the place as it was. Then, the wound was sutured and the rabbits were recovered and fed with normal diet. Three weeks after surgery, the rabbits were anesthetized with pentobarbital and sections were taken of the carotid artery. The part of the artery covered by a cuff was examined under microscope for the arteriosclerotic index which was rated at 0, 1, 2 and 3 according to the degree of intimal thickening. For each rabbit, about 30 transverse sections were taken at random, and the mean arteriosclerotic index was used for the determination of the effect. Test Compound was suspended in 0.5% methyl cellulose and injected intramuscularly for 5 days each week beginning from one day after cuff treatment to one day before sacrifice. The injection volume was adjusted to 0.5 ml/kg.

| SMILES | Ca content of the thoracic aorta (means± standard error) (thoracic aorta; 1 mg/kg per os twice a day) | Ca content of the thoracic aorta (means± standard error) (thoracic aorta; 10 mg/kg per os twice a day) | Ca content of the thoracic aorta (means± standard error) (thoracic aorta; 100 mg/kg per os twice a day) | ED50 (thoracic aorta) [mg/kg] | IC50 [1] [nM] | Arteriosclerotic Index (mean±standard error) (rabbit carotid artery [2]; 1 mg/kg) | Arteriosclerotic Index (mean±standard error) (rabbit carotid artery [2]; 10 mg/kg) | Ca content of the thoracic aorta (means± standard error) (thoracic aorta; 0.1 mg/kg per os twice a day) | Arteriosclerotic Index (rabbit carotid artery [3]; 1.0 mg/kg) | Arteriosclerotic Index (rabbit carotid artery [3]; 10 mg/kg) |
| --- | --- | --- | --- | --- | --- | --- | --- | --- | --- | --- |
| COC(=O)C1=C(C)NC(C)=C(C(=O)OC)C1c1ccccc1[N+](=O)[O-] [Nifedipine, Dimethyl ester of 2,6-dimethyl-4-(2-nitrophenyl)-1,4-dihydropyridine-3,5-dicarboxylic acid, reference compound] | 93 ± 15 % of control | 58 ± 15 % of control | 30 ± 10 % of control | 23.2 | 0.17 | 0.94 ±0.21 | 1.19 ±0.26 | – | – | – |
| COC(=O)C1=C(C#N)NC(C)=C(C(=O)OC(C)C)C1c1cccc([N+](=O)[O-])c1 (centres unmarked) [Dihydropyridine Compound A, Isopropyl ester of 6-cyano-5-methoxycarbonyl-2-methyl-4-(3-nitrophenyl)-1,4-dihydropyridine-3-carboxylic acid] | 57 ± 13 % of control | 27 ± 6 % of control | 8 ± 3 % of control | 2.2 | 0.033 | 0.85 ±0.15 | 0.61 ±0.19 | 94 ± 9 % of control | 0.85 ± 0.16 | 0.61 ± 0.21 |
